Laboratory results published in patent US20060160095A1, “Survivin” (EiRx Therapeutics Limited, priority 2002, published 2006).

Tests used:
[1] = test system: Primary human neutrophils; test: MTT survival assay of neutrophils cultured with GM-CSF, with or without gliotoxin; type: cell-based; settings: various amounts of GM-CSF, 18 h culture
Description: Primary human neutrophils are isolated and purified from peripheral blood of normal healthy individuals. Neutrophils are resuspended in serum containing culture medium together with various amounts of GM-CSF at a density of 2×10^6/ml, with 100 μl plated into a 96 well plate and cultured for 18 h at 37° C. After this time 10 μl of MTT (5 mg/ml) is added to the cultures and incubated for a further 4 h at 37° C. before solubilisation of the purple coloured formazan with acidic isopropanol. Optical densities are read at 570 nm using a plate reader.
Primary human neutrophils are isolated and purified from peripheral blood of normal healthy individuals. Neutrophils are resuspended in serum containing culture medium containing 5 U/ml of GM-CSF at a concentration of 2×10^6/ml. […] After the indicated time, 10 μl of MTT (5 mg/ml) are added to the cultures and incubated for a further 4 h at 37° C. before solubilisation of the purple coloured formazan with acidic isopropanol. Optical densities are read at 570 nm using a plate reader.

[2] = test system: Neutrophils; test: Measurement of apoptosis by DNA fragmentation (propidium iodide flow cytometry); type: cell-based, human; settings: neutrophils cultured overnight in the presence of GM-CSF
Description: Neutrophils are isolated from the blood as described in Example 1 and resuspended at a concentration of 2×10^6/ml. Five hundred microlitres are pipetted into wells of a 24 well plate and incubated in the presence or absence of survival factors.
After this incubation, the neutrophils are carefully resuspended by gentle agitation and the total contents of the well are placed into an eppendorf and centrifuged @2800 rpm for 2 min @ RT in a minifuge. The cell pellet is carefully resuspended in 300 μl of ice cold hypotonic fluorochrome solution (50 μg/ml Propidium Iodide, 0.1% Sodium Citrate and 0.1% Triton X-100) and placed in a fridge for 24 h @ 4° C.
Prepared samples are analysed with a FacsCalibre flow cytometer (Becton Dickinson) using double discrimination to ensure single cell suspension with Log Forward and Side Scatter Parameter acquisition.

[3] = test system: survivin; test: Immunoblotting of survivin protein in neutrophils; type: cell-based, human; settings: cultured for 12 h in the presence of cytokine
Description: Neutrophils are cultured at 1×10^6 per ml in complete culture medium. GM-CSF (50 ng/ml; kind gift of T. Hartung, University of Konstanz, Konstanz, Germany) or G-CSF (25 ng/ml; PeproTech, BioConcept, Allschwil, Switzerland) are added. The duration of GM-CSF or G-CSF stimulation is indicated in each experiment.
Neutrophils (5×10^6) are washed with PBS, lysed with RIPA-buffer (0.5% sodium deoxycholate, 1% Nonidet P-40, 0.1% SDS in PBS) supplemented with a protease inhibitor-cocktail (Sigma) with frequent vortexing on ice for 40 min, including two freeze/thaw cycles using a methanol/dry ice bath. After a 10-min centrifugation to remove insoluble particles, equal amounts of the cell lysates are loaded on NuPage-Gels (Invitrogen Corp., Groningen, Netherlands). Separated proteins are electrotransferred onto polyvinylidene difluoride (PVDF) membranes (Immobilion-P, Millipore, Bedford, Mass.). The filters are incubated overnight with a polyclonal anti-survivin antibody (1/1000; R&D Systems, Abingdon, UK) at 4° C. in TBS/0.1% Tween-20/3% non-fat dry milk. Purified full-length recombinant human survivin (2 μl) is provided by R&D Systems as positive control for anti-survivin immunoblotting. For loading controls, stripped filters are incubated with a monoclonal anti-β-actin antibody (1/10,000; Sigma). Filters are washed in TBS/0.1% Tween-20 for 30 min and incubated with the appropriate HRP-conjugated secondary antibody (Amersham Pharmacia Biotech, Dübendorf, Switzerland) in TBS/0.1% Tween-20/5% non-fat dry milk for 1 h. Filters are developed by an ECL-technique (ECL-Kit, Amersham Pharmacia Biotech) according to the manufacturer's instructions.
(§1) The 20-mer first generation antisense oligonucleotide 4003 targeting the survivin mRNA has been described above. The second generation 2′-O-methoxy-ethoxy (2′-MOE) gapmer version of 4003 (as) and its 3-base mismatch sequence control (ms) are synthesized using an Applied Biosystems 394B automated DNA synthesizer as described (De Mesaeker et al. (1995) Acc. Chem. Res. 28, 366-374). Sequences are as follows: antisense survivin, cscscsasgsCsCsTsTsCsCsAsGsCsTscscststsg; mismatch survivin, cscstsasgsCsCsTsTsCsCsAsGsGsTscscstsasg. Small letters refer to 2′-O-(2-methoxy)-ethyl-modified nucleotides, capital letters to DNA, and “s” refers to phosphorothioate linkages. Cells isolated and cultured as described above are treated with survivin antisense oligonucleotides (as) or survivin mismatch control oligonucleotides (ms) at the indicated concentrations. In the experiments in which GM-CSF (50 ng/ml; kind gift of T. Hartung, University of Konstanz, Konstanz, Germany) or G-CSF (25 ng/ml; PeproTech, BioConcept, Allschwil, Switzerland) are added, the oligonucleotides are given 2 h before addition of cytokines.

[4] = test system: Neutrophils; test: Neutrophil apoptosis by oligonucleosomal DNA fragments after 2-MOE oligonucleotides; type: cell-based, human; settings: cytokine alone
Description: Neutrophil apoptosis is assessed by oligonucleosomal DNA fragmentation (Dibbert et al.(1999) Proc. Natl. Acad. Sci. USA 96, 13330-13335; Hebestreit et al. (1998), J. Exp. Med. 187, 415-425) according to Nicoletti et al. ((1991) J. Immunol. Meth. 139, 271-279). Briefly, cells are resuspended in hypotonic fluorochrome solution containing 50 μg/ml propidium iodide (Sigma Buchs, Switzerland), 0.1% sodium citrate (Sigma) and 0.1% (vol/vol) Triton-X 100 (Sigma), incubated at 4° C. for 10 h, and analyzed by flow cytometry (FACScan, Becton Dickinson, Heidelberg, Germany).
as §1
Values are means ±S.E.M. of four independent experiments. *, p<0.05; **, p<0.01; ***, p<0.001.

[5] = test system: caspase-3; test: Caspase-3 immunoblotting in neutrophils; type: cell-based, human; settings: neutrophils cultured with GM-CSF or G-CSF for 10 h
Description: Immunoblotting is carried out as described above using supernatants of cell lysates. Caspase-3 is detected using a polyclonal anti-caspase-3 antibody (1/1000; Becton Dickinson Pharmingen, Heidelberg, Germany))
Neutrophils (2.5×10^6) are cultured in the presence or absence of GM-CSF (50 ng/ml), G-CSF (25 ng/ml), 2-MOE modified antisense or mismatch survivin oligonucleotides at the indicated concentrations for 10 h, washed with cold PBS and subsequently lysed in 50 μl cell lysis buffer (50 mM HEPES, pH 7.4/0.1% Chaps/5 mM DTT/0.1 mM EDTA) using a Teflon glass homogenizer (VWR International, Ismaning, Germany) on ice for 10 min. After a 10-min centrifugation step at 10,000×g at 4° C., an aliquot of the supernatant is saved for caspase-3 immunoblotting and caspase 3-like activity is measured in 10 μl supernatants as enzymatic-conversion of the colorimetric substrate Ac-DEVD-pNA at 405 nm according to the manufacturer's instructions (QuantiZyme caspase 3 cellular activity assay kit, Biomol, Plymouth Meeting, Pa., USA).

Q: What does the source list for “Granulocyte macrophage colony-stimulating factor [GM-CSF]”?
A: neutrophil survival (MTT, optical density at 570 nm) [1]: direct correlation between survival and concentrations of GM-CSF; apoptosis by DNA fragmentation (G0/G1 and sub-G1 peaks) [2]: few cells in the sub-G1 peak; Levels of survivin (immunoblot) in normal control neutrophils [3]: increased; DNA-fragmentation of neutrophils with cytokine [4]: prevent DNA-fragmentation; caspase-3 proform and 17-kDa fragment levels with cytokine [5]: maintain greater amounts of the caspase-3 proform
